Experimental data reported in patent publication US5126057A, “Disinfecting with N,N'-dihaloimidazolidin-4-ones” (Auburn Research Foundation, priority 1991, dated 1992).

How the values were obtained:
[1] = test system: Pseudomonas aeruginosa (ATCC 27853); experiment: Bactericidal efficacy, percent inactivation of P. aeruginosa; format: cell-based; details: pH 7.0, 22° C., DFW
Procedure: (§1) The halogenated imidazolidin-4-one derivatives prepared as in examples 3, 5, and 6 (Compounds 1, 5, and 3, respectively) were tested as bactericides against the microorganisms Staphylococcus aureus (ATCC25923) and Pseudomonas aeruginosa (ATCC 27853) in demand-free water (DFW) as a function of pH and temperature and in a synthetic-demand water (SDW) at pH 9.5 and 4° C. The demand-free and synthetic-demand waters were prepared as described in examples 7 and 12, respectively.
(§2) For the bactericidal efficacy tests 50 milliliters of buffered DFW or SDW were placed in a 125 milliliter flask which was then inoculated with the organism to be tested such that the final density of the organism was about 1×10^6 cfu/ml (colony forming units per milliliter). The inoculated solution was allowed to equilibrate at the test temperature by immersion in a thermostated water bath for 15 minutes with constant stirring. Then an appropriate amount of an aqueous solution containing the test halogenated imidazolidin-4-one compound maintained at the same test temperature was added to the inoculated solution to bring the total concentration of potential positive halogen (Cl^+ or Cl^+ /Br^+) in the mixture to a predetermined level (10 parts per million and 5 parts per million Cl^+ from compounds 1 and 3; the molar equivalent in Cl^+ /Br^+ from Compound 5). 1 milliliter aliquots were removed from the test mixture at various predetermined times, and the active halogen was quenched by 1 milliliter portions of sterile 0.02 Normal sodium thiosulfate. Serial dilutions were made into sterile saline, and three 25 microliter aliquots of each of the resulting dilutions were applied to the dried surface of a Petri dish containing tryptic soy and nutrient agars for plating S. aureus and P. aeruginosa, respectively. After 48 hours at 37° C. the three replicates for each dilution were counted and averaged. This average was used to compute the cfu/ml for that particular aliquot. Inactivation of the organism was considered to be at least 99.9999 percent when no colonies were detected in the thiosulfate quenched aliquots.

bacteria = experiment: Bactericidal efficacy, summary over all bacteria and conditions; format: cell-based, Staphylococcus aureus and Pseudomonas aeruginosa; details: Table V conditions
Procedure: as §1, §2

[2] = test system: Staphylococcus aureus (ATCC25923); experiment: Bactericidal efficacy, percent inactivation of S. aureus; format: cell-based; details: for killing at 5 ppm: DFW; for killing at 10 ppm: SDW
Procedure: as §1, §2

[3] = Laboratory stability in halogen demand-free water (DFW), iodometric titration; format: physicochemical; details: for remaining at 23.52 h / remaining at 95.76 h / remaining at 168 h / remaining at 336 h / remaining at 504 h / remaining at 672 h / remaining at 840 h / remaining at 1008 h: demand-free water
Procedure: The stability of 1,3-dichloro-2,2,5,5-tetramethylimidazolidin-4-one (Compound 1) in halogen demand-free water was determined at 22° C. and pH values of 4.5, 7.0, and 9.5, and the results were compared to those for free chlorine as supplied by calcium hypochlorite. The demand-free water (DFW) was prepared by chlorination of distilled, deionized water buffered to the appropriate pH followed by dechlorination (of the excess free chlorine) by exposure to direct sunlight until no free chlorine remained. This treatment insured that all halogen demand in the water was neutralized. Then Compound 1 and calcium hypochlorite were separately dissolved in identical DFW (buffered to an appropriate pH) solutions to the same final total chlorine concentrations (10 milligrams per liter potential positive chlorine). The solutions in separate flasks, which were stoppered with porous, sterile cotton plugs to allow free exchange with laboratory air, were then held at a constant temperature of 22° C. by means of a controlled water bath for a period of several weeks. Aliquots were withdrawn periodically (at least weekly), and the total positive chlorine remaining was determined in triplicate by standard iodometric titration. […]
The stabilities of 1,3-dibromo-2,2,5,5-tetramethylimidazolidin-4-one (Compound 4) and 1-bromo-3-chloro-2,2,5,5-tetramethylimidazolidin-4-one (Compound 5) in halogen demand-free water (DFW) were determined at 22° C. and pH values of 7.0 and 9.5 using the same procedures as discussed under example 9. Given the instability of Compound 1 at pH 4.5 (example 9), it was deemed unnecessary to test compounds 4 and 5 at that pH. The two compounds were dissolved in DFW buffered to the appropriate pH in separate flasks and held at a temperature of 22° C. by means of a constant temperature bath. The starting concentrations of total potential positive halogen in the two solutions were 22.6 milligrams per liter for Compound 4 and 16.25 milligrams per liter for Compound 5; these concentrations represent the molar equivalents in total potential positive halogen to that used for Compound 1 in example 9. The solutions were analyzed in the manner described in example 9.

[4] = Stability in synthetic halogen demand water (SDW); format: physicochemical; details: 4° C.
Procedure: A synthetic halogen demand water (SDW) was prepared by mixing the following substances with demand-free water (DFW): 375 milligrams per liter of each of the inorganic salts sodium chloride, potassium chloride, calcium chloride, and magnesium chloride; 50 milligrams per liter of Bentonite clay; 30 milligrams per liter of humic acid; 0.01 percent final concentration of heat-treated horse serum; and 5×10^5 cells per milliliter of heat-killed Saccharomyces cerevisiae yeast cells. The SDW solution was buffered with 0.01 Molar borate/sodium hydroxide to a pH of 9.5 and held at 4° C. during the experiments. The conditions of high ionic strength, turbidity, and organic material, and alkaline pH at low temperature, are viewed as a worst-case scenario for disinfection applications and thus should provide the optimum test of stability for the new compounds.
In separate flasks were dissolved compounds 1, 2, 3, and 5 to a starting concentration of 10 milligrams per liter total potential positive chlorine or its molar equivalent (16.25 milligrams per liter) in total potential positive halogen for Compound 5. Aliquots were withdrawn frequently over a period of more than 90 hours, and the percent positive halogen remaining was determined by standard iodometric titration.

[5] = ATCC25923, 5 min, pH 9.5, pH 9.5, 4° C., 5 minutes
[6] = ATCC25923, 10 min, pH 9.5, pH 9.5, 4° C., 10 minutes

With `CC1(C)C(=O)N(Cl)C(C)(C)N1Cl` [Compound 1, 1,3-dichloro-2,2,5,5-tetramethylimidazolidin-4-one] the killing at 5 ppm ([1]; ATCC27853, 5 min, 5 minutes) was > 100%, the killing at 5 ppm ([1]; ATCC27853, 10 min, 10 minutes) was > 100% and the “bactericidal efficiency (in words)” value (bacteria) was “reasonably efficient as a bactericide”. It also gave a killing at 5 ppm ([2]; ATCC25923, 5 min, pH 4.5, pH 4.5, 22° C., 5 minutes) of 100%, a killing at 5 ppm ([2]; ATCC25923, 5 min, pH 7, pH 7.0, 22° C., 5 minutes) of 89.1% and a killing at 5 ppm [2, 5] of 71.3%. The killing at 10 ppm [2, 5] was 43.8%, the killing at 5 ppm ([2]; ATCC25923, 5 min, pH 9.5, pH 9.5, 22° C., 5 minutes) was > 100% and the killing at 5 ppm ([2]; ATCC25923, 10 min, pH 4.5, pH 4.5, 22° C., 10 minutes) was > 100%. The killing at 5 ppm ([2]; ATCC25923, 10 min, pH 7, pH 7.0, 22° C., 10 minutes) was 99.1%, the killing at 5 ppm [2, 6] was 80.9% and the killing at 10 ppm [2, 6] was 68.1%. For the same compound, the killing at 5 ppm ([2]; ATCC25923, 10 min, pH 9.5, pH 9.5, 22° C., 10 minutes) was > 100%, the “stability (in words), against Compounds 4 and 5” value [3] was “considerably more stable in DFW at pH values of 7.0 and 9.5 and 22 °C than are Compounds 4 and 5” and the remaining at 23.52 h ([3]; pH 4.5) was 100%. For the same compound, the remaining at 95.76 h ([3]; pH 4.5) was 88.9%, the remaining at 168 h ([3]; pH 4.5) was 77.6% and the remaining at 336 h ([3]; pH 4.5) was 55.5%. It also gave a remaining at 504 h ([3]; pH 4.5) of 40.4%, a remaining at 672 h ([3]; pH 4.5) of 30.7% and a remaining at 840 h ([3]; pH 4.5) of 26%. The remaining at 1008 h ([3]; pH 4.5) was 23.5%, the remaining at 168 h ([3]; pH 7) was 97.1% and the remaining at 336 h ([3]; pH 7) was 95%. The remaining at 504 h ([3]; pH 7) was 93.5%, the remaining at 672 h ([3]; pH 7) was 90.6% and the remaining at 840 h ([3]; pH 7) was 86%. For the same compound, the remaining at 1008 h ([3]; pH 7) was 83.4%, the remaining at 23.52 h ([3]; pH 9.5) was 96.5% and the remaining at 95.76 h ([3]; pH 9.5) was 98.9%. For the same compound, the remaining at 168 h ([3]; pH 9.5) was 95.1%, the remaining at 336 h ([3]; pH 9.5) was 89.4% and the remaining at 504 h ([3]; pH 9.5) was 82.6%. The remaining at 672 h ([3]; pH 9.5) was 72.3%, the remaining at 840 h ([3]; pH 9.5) was 63.7% and the remaining at 1008 h ([3]; pH 9.5) was 55.1%. The “stability (in words)” value ([3]; pH 4.5) was “rather unstable in acidic DFW (pH 4.5)”, the “stability (in words)” value ([3]; pH 7) was “considerably more stable in DFW at pH 7.0 at 22 °C than is free chlorine” and the “stability (in words), against free chlorine” value ([3]; pH 9.5) was “more stable than free chlorine in alkaline DFW (pH 9.5)”. The “stability (in words)” value ([4]; heavy halogen demand (SDW), pH 9.5) was “much more stable under these conditions than is free chlorine”, the remaining at 0.083 h ([4]; synthetic halogen demand water, SDW, pH 9.5, 0.083 hrs, read-out: Percent Halogen Remaining) was 98.8% and the remaining at 0.25 h ([4]; synthetic halogen demand water, SDW, pH 9.5, 0.25 hrs, read-out: Percent Halogen Remaining) was 98.8%. The remaining at 0.5 h ([4]; synthetic halogen demand water, SDW, pH 9.5, 0.5 hrs, read-out: Percent Halogen Remaining) was 93.1%, the remaining at 1 h ([4]; synthetic halogen demand water, SDW, pH 9.5, 1.0 hrs, read-out: Percent Halogen Remaining) was 92.4% and the remaining at 2 h ([4]; synthetic halogen demand water, SDW, pH 9.5, 2.0 hrs, read-out: Percent Halogen Remaining) was 92.4%. The remaining at 4 h ([4]; synthetic halogen demand water, SDW, pH 9.5, 4.0 hrs, read-out: Percent Halogen Remaining) was 88.8%, the remaining at 25 h ([4]; synthetic halogen demand water, SDW, pH 9.5, 25.0 hrs, read-out: Percent Halogen Remaining) was 71.4% and the remaining at 93 h ([4]; synthetic halogen demand water, SDW, pH 9.5, 93.0 hrs, read-out: Percent Halogen Remaining) was 60.2%.
